For 23 compounds, IC50 results are on record in US11078228B2, “Ectonucleotidase inhibitors and methods of use thereof” (Calithera Biosciences, Inc., priority 2018, dated 2021).

Structures are written as SMILES. Where only a bound is given, the exact number is not on record here.

recombinant CD73, sequence (P21589 27-547): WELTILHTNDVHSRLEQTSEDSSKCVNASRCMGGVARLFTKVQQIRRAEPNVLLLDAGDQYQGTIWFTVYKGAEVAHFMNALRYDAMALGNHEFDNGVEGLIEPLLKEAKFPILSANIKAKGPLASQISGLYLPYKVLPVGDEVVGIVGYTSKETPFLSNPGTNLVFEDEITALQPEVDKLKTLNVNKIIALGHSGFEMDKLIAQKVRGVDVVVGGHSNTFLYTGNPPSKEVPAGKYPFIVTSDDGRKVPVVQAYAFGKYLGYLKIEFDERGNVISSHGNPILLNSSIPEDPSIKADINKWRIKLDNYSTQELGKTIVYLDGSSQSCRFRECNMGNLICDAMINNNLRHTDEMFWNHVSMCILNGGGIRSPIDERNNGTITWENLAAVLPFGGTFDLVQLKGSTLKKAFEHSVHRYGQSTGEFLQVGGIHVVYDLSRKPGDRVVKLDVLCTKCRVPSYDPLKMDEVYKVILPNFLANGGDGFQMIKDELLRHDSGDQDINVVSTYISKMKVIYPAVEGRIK

This experiment addresses recombinant CD73 (Homo sapiens (Human), UniProt P21589). The experiment in a line: Assay 2: Inhibition of the CD73 enzyme in vitro (0.05 nM CD73, 1 hour 37° C., Malachite Green). Type of experiment: biochemical. The following applies: 0.05 nM CD73, 50 μM AMP, 1 hour at 37° C. How it is done: For measurements of soluble CD73 enzyme activity, recombinant CD73 was obtained from R&D Systems, Cat. No. 5795-EN-010. […] Reactions were allowed to proceed for 1 hour at 37° C. before the addition of 100 μL Malachite Green (Cell Signaling Technology, Cat. No. 12776). After 5 minutes at room temperature, absorbance at 630 nm was determined on a microplate spectrophotometer. The concentration of inorganic phosphate was determined using a phosphate standard curve.
With `C#C[C@@]1(O)[C@@H](COC(Cc2ccccc2)(C(=O)O)C(=O)O)O[C@@H](n2cnc3c(N(C)CCOC)nc(Cl)nc32)[C@@H]1O` [Example 39, 2-benzyl-2-(((2R,3S,4R,5R)-5-(2-chloro-6-((2-methoxyethyl)-(methyl)amino)-9H-purin-9-yl)-3-ethynyl-3,4-dihydroxytetrahydrofuran-2-yl)methoxy)malonic acid], the IC50 was 3 nM. `C#C[C@@]1(O)[C@@H](COC(Cc2ccccc2)(C(=O)O)C(=O)O)O[C@@H](n2cnc3c(NO)nc(Cl)nc32)[C@@H]1O` [Example 168, 2-benzyl-2-(((2R,3S,4R,5R)-5-(2-chloro-6-(hydroxyamino)-9H-purin-9-yl)-3-ethynyl-3,4-dihydroxytetrahydrofuran-2-yl)methoxy)malonic acid]: the IC50 came to 14 nM.

Consider `C#C[C@@]1(O)[C@@H](COC(Cc2ccccc2)(C(=O)O)C(=O)O)O[C@@H](n2cnc3c(NCc4ccc(Cl)cc4)nc(Cl)nc32)[C@@H]1O` [Example 87, 2-benzyl-2-(((2R,3S,4R,5R)-5-(2-chloro-6-((4-chlorobenzyl)amino)-9H-purin-9-yl)-3-ethynyl-3,4-dihydroxytetrahydrofuran-2-yl)methoxy)malonic acid], for which the IC50 was 0.6 nM. `C#C[C@@]1(O)[C@@H](COC(Cc2nccs2)(C(=O)O)C(=O)O)O[C@@H](n2cnc3c(N)nc(Cl)nc32)[C@@H]1O` [Example 142, 2-(((2R,3S,4R,5R)-5-(6-amino-2-chloro-9H-purin-9-yl)-3-ethynyl-3,4-dihydroxytetrahydrofuran-2-yl)methoxy)-2-(thiazol-2-ylmethyl)malonic acid]: the IC50 was 5 nM. `C#C[C@@]1(O)[C@@H](COC(Cc2ccccc2)(C(=O)O)C(=O)O)O[C@@H](n2cnc3c(N(C)C)nc(Cl)nc32)[C@@H]1O` [Example 31, 2-benzyl-2-(((2R,3S,4R,5R)-5-(2-chloro-6-(dimethylamino)-9H-purin-9-yl)-3-ethynyl-3,4-dihydroxytetrahydrofuran-2-yl)methoxy)malonic acid]: the IC50 stood at 2 nM. Consider `C#C[C@@]1(O)[C@@H](COC(Cc2ccsc2)(C(=O)O)C(=O)O)O[C@@H](n2cnc3c(NCCO)nc(Cl)nc32)[C@@H]1O` [Example 32, 2-(((2R,3S,4R,5R)-5-(2-chloro-6-((2-hydroxyethyl)amino)-9H-purin-9-yl)-3-ethynyl-3,4-dihydroxytetrahydrofuran-2-yl)methoxy)-2-(thiophen-3-ylmethyl)malonic acid], for which the IC50 turned out to be 3 nM. `C#C[C@@]1(O)[C@@H](COC(Cc2cc(C)on2)(C(=O)O)C(=O)O)O[C@@H](n2cnc3c(NCc4ccc(F)cc4)nc(Cl)nc32)[C@@H]1O` [Example 111, 2-(((2R,3S,4R,5R)-5-(2-chloro-6-((4-fluorobenzyl)amino)-9H-purin-9-yl)-3-ethynyl-3,4-dihydroxytetrahydrofuran-2-yl)methoxy)-2-((5-methylisoxazol-3-yl)methyl)malonic acid]: the IC50 came to 2670 nM. The value for `Nc1nc(Cl)nc2c1ncn2[C@@H]1O[C@H](COC(Cc2ccccc2)(C(=O)O)C(=O)O)[C@](O)(C#CC2CC2)[C@H]1O` [Compound 4, 2-(((2R,3S,4R,5R)-5-(6-amino-2-chloro-9H-purin-9-yl)-3-(cyclopropylethynyl)-3,4-dihydroxytetrahydrofuran-2-yl)methoxy)-2-benzylmalonic acid] was 0.5 nM; that for `C#C[C@@]1(O)[C@@H](COC(Cc2ccc(-c3cccn(CCOC)c3=O)cc2)(C(=O)O)C(=O)O)O[C@@H](n2cnc3c(N)nc(Cl)nc32)[C@@H]1O` [Example 146, 2-(((2R,3S,4R,5R)-5-(6-amino-2-chloro-9H-purin-9-yl)-3-ethynyl-3,4-dihydroxytetrahydrofuran-2-yl)methoxy)-2-(4-(1-(2-methoxyethyl)-2-oxo-1,2-dihydropyridin-3-yl)benzyl)malonic acid] was 0.41 nM; that for `C#C[C@@]1(O)[C@@H](COC(Cc2ccccc2)(C(=O)O)C(=O)O)O[C@@H](n2cnc3c(NCCCO)nc(Cl)nc32)[C@@H]1O` [Example 34, 2-benzyl-2-(((2R,3S,4R,5R)-5-(2-chloro-6-((3-hydroxypropyl)amino)-9H-purin-9-yl)-3-ethynyl-3,4-dihydroxytetrahydrofuran-2-yl)methoxy)malonic acid] was 2 nM. Turning to `C#C[C@@]1(O)[C@@H](COC(Cc2ccc(N3CCCCC3=O)cc2)(C(=O)O)C(=O)O)O[C@@H](n2cnc3c(N)nc(Cl)nc32)[C@@H]1O` [Compound 10, 2-(((2R,3S,4R,5R)-5-(6-amino-2-chloro-9H-purin-9-yl)-3-ethynyl-3,4-dihydroxytetrahydrofuran-2-yl)methoxy)-2-(4-(2-oxopiperidin-1-yl)benzyl)malonic acid], the IC50 was 0.26 nM. As for `C#C[C@@]1(O)[C@@H](COC(Cc2ccccc2)(C(=O)O)C(=O)O)O[C@@H](n2cnc3c(N[C@@H](C)CC)nc(Cl)nc32)[C@@H]1O` [Example 74, 2-benzyl-2-(((2R,3S,4R,5R)-5-(6-((S)-sec-butylamino)-2-chloro-9H-purin-9-yl)-3-ethynyl-3,4-dihydroxytetrahydrofuran-2-yl)methoxy)malonic acid], the IC50 worked out at 2 nM. Take `C#C[C@@]1(O)[C@@H](COC(Cc2ccccc2)(C(=O)O)C(=O)O)O[C@@H](n2cnc3c(N4CC(C)(O)C4)nc(Cl)nc32)[C@@H]1O` [Example 47, 2-benzyl-2-(((2R,3S,4R,5R)-5-(2-chloro-6-(3-hydroxy-3-methylazetidin-1-yl)-9H-purin-9-yl)-3-ethynyl-3,4-dihydroxytetrahydrofuran-2-yl)methoxy)malonic acid]: the IC50 came to 2 nM. Regarding `C#C[C@@]1(O)[C@@H](COC(Cc2ccccc2)(C(=O)O)C(=O)O)O[C@@H](n2cnc3c(-c4cccs4)nc(Cl)nc32)[C@@H]1O` [Example 18, 2-benzyl-2-(((2R,3S,4R,5R)-5-(2-chloro-6-(thiophen-2-yl)-9H-purin-9-yl)-3-ethynyl-3,4-dihydroxytetrahydrofuran-2-yl)methoxy)malonic acid], the IC50 worked out at 0.3 nM. `C#C[C@@]1(O)[C@@H](COC(Cc2ccccc2)(C(=O)O)C(=O)OCC)O[C@@H](n2cnc3c(NCc4ccncc4)nc(Cl)nc32)[C@@H]1O` (stereo partly drawn) [Example 109, 2-benzyl-2-(((2R,3S,4R,5R)-5-(2-chloro-6-((pyridin-4-ylmethyl)amino)-9H-purin-9-yl)-3-ethynyl-3,4-dihydroxytetrahydrofuran-2-yl)methoxy)-3-ethoxy-3-oxopropanoic acid]: the IC50 amounted to 284 nM. `C#C[C@@]1(O)[C@@H](COC(Cc2ccccc2)(C(=O)O)C(=O)O)O[C@@H](n2cnc3c(N)nc(C(C)=O)nc32)[C@@H]1O` [Example 127, 2-(((2R,3S,4R,5R)-5-(2-acetyl-6-amino-9H-purin-9-yl)-3-ethynyl-3,4-dihydroxytetrahydrofuran-2-yl)methoxy)-2-benzylmalonic acid]: the IC50 turned out to be 170 nM. Consider `C#C[C@@]1(O)[C@@H](COC(Cc2ccccc2)(C(=O)O)C(=O)O)O[C@@H](n2cnc3c(NCc4cccc(F)c4)nc(Cl)nc32)[C@@H]1O` [Example 85, 2-benzyl-2-(((2R,3S,4R,5R)-5-(2-chloro-6-((3-fluorobenzyl)amino)-9H-purin-9-yl)-3-ethynyl-3,4-dihydroxytetrahydrofuran-2-yl)methoxy)malonic acid], for which the IC50 stood at 2 nM. As for `C#C[C@@]1(O)[C@@H](COC(Cc2ccc(N3CCCNC3=O)cc2)(C(=O)O)C(=O)O)O[C@@H](n2nc(C)c3ccc(Cl)nc32)[C@@H]1O` [Example 131, 2-(((2R,3S,4R,5R)-5-(6-chloro-3-methyl-1H-pyrazolo[3,4-b]pyridin-1-yl)-3-ethynyl-3,4-dihydroxytetrahydrofuran-2-yl)methoxy)-2-(4-(2-oxotetrahydropyrimidin-1(2H)-yl)benzyl)malonic acid], the IC50 is over 100 nM. Consider `C#C[C@@]1(O)[C@@H](COC(Cc2ccccc2)(C(=O)O)C(=O)O)O[C@@H](n2cnc3c(NC4CC4)nc(Cl)nc32)[C@@H]1O` [Example 83, 2-benzyl-2-(((2R,3S,4R,5R)-5-(2-chloro-6-(cyclopropylamino)-9H-purin-9-yl)-3-ethynyl-3,4-dihydroxytetrahydrofuran-2-yl)methoxy)malonic acid], for which the IC50 came out at 1 nM. Consider `C#C[C@@]1(O)[C@@H](COC(Cc2ccc(N3CCCC3)cc2)(C(=O)O)C(=O)O)O[C@@H](n2cnc3c(N)nc(Cl)nc32)[C@@H]1O` [Example 144, 2-(((2R,3S,4R,5R)-5-(6-amino-2-chloro-9H-purin-9-yl)-3-ethynyl-3,4-dihydroxytetrahydrofuran-2-yl)methoxy)-2-(4-(pyrrolidin-1-yl)benzyl)malonic acid], for which the half-inhibitory concentration (IC50) is 1 nM. Next, `C#C[C@@]1(O)[C@@H](COC(Cc2ccccc2)(C(=O)O)C(=O)NC)O[C@@H](n2cnc3c(NCc4ccccc4)nc(Cl)nc32)[C@@H]1O` (stereo partly drawn) [Example 107, 2-benzyl-2-(((2R,3S,4R,5R)-5-(6-(benzylamino)-2-chloro-9H-purin-9-yl)-3-ethynyl-3,4-dihydroxytetrahydrofuran-2-yl)methoxy)-3-(methylamino)-3-oxopropanoic acid]: 506 nM.

Regarding `C#C[C@@]1(O)[C@@H](COC(Cc2cccs2)(C(=O)O)C(=O)O)O[C@@H](n2cnc3c(N)nc(Cl)nc32)[C@@H]1O` [Example 128, 2-(((2R,3S,4R,5R)-5-(6-amino-2-chloro-9H-purin-9-yl)-3-ethynyl-3,4-dihydroxytetrahydrofuran-2-yl)methoxy)-2-(thiophen-2-ylmethyl)malonic acid], the IC50 is 6 nM.

With `C#C[C@@]1(O)[C@@H](COC(Cc2ccc(N3CCCNC3=O)cc2)(C(=O)O)C(=O)O)O[C@@H](n2cnc3c(NC(C)C)nc(Cl)nc32)[C@@H]1O` [Example 140, 2-(((2R,3S,4R,5R)-5-(2-chloro-6-(isopropylamino)-9H-purin-9-yl)-3-ethynyl-3,4-dihydroxytetrahydrofuran-2-yl)methoxy)-2-(4-(2-oxotetrahydropyrimidin-1(2H)-yl)benzyl)malonic acid], the IC50 is 0.29 nM.
